Results from patent publication US20200131473A1, “METHOD OF GENERATING 2 CELL-LIKE STEM CELLS” (IFOM FONDAZIONE ISTITUTO FIRC DI ONCOLOGIA MOLECOLARE, priority 2017, published 2020).

How the values were obtained:
mESC lines E14 and R1 = assay: Whole gene expression profiling (microarray) of mESC lines E14 and R1; format: cell-based, mouse
Method: The quality of total RNA was first assessed using an Agilent Bioanalyzer 2100 (Agilent Technologies, Palo Alto, Calif.). Biotin-labeled cDNA targets were synthesized starting from 150 ng of total RNA. Double stranded cDNA synthesis and related cRNA was performed with GeneChip® WT Plus Kit (Affymetrix, Santa Clara, Calif.). With the same kit was synthesized the sense strand cDNA before to be fragmented and labeled. […] Each eukaryotic GeneChip® probe array contains probe sets for several B. subtilis genes that are absent in the samples analyzed (lys, phe, thr, and dap). This Poly-A RNA Control Kit contains in vitro synthesized, polyadenylated transcripts for these B. subtilis genes that are pre-mixed at staggered concentrations to allow GeneChip® probe array users to assess the overall success of the assay.
Hybridization was performed using the GeneAtlas™ Hybridization, Wash and Stain Kit. […] Targets were diluted in hybridization buffer at a concentration of 0.05 μg/ul, denatured at 99° C. for 5 minutes, incubated at 45° C. for 5 minutes and centrifuged at 5,000 rpm for 1 minute. The Array Strip is then moved to a hybridization tray, which contains the hybridization cocktails. A single Gene 2.1 PEG Array Strip is hybridized with four different biotin-labeled targets. Hybridizations were performed for 20 hours at 48° C. in the GeneAtlas™ Hybridization Station. The Array Strips were washed and stained in the GeneAtlas™ Personal Fluidics Station. At the end of this procedure the array strips were placed into the imaging tray, which contains the Array Holding buffer.
The array strips were imaged using the GeneAtlas™ Imaging Station. Affymetrix GeneAtlas™ Command Console software was used to acquire the Array Strip images and […].
The CAMERA gene set enrichment p-values were calculated using the limma package and the camera function 30.
In the GSVA based enrichment analysis, we used the MsigDB gene sets, and transformed the individual gene expression values into gene set expression values with the GSVA package 32. We calculated the gene set differential expression as in the gene level differential expression analysis, only skipping the RMA normalization step.

[1] = test system: ESC lines E14, R1 and MC1; assay: High-throughput transcriptional profiling (RNA sequencing) of ESC lines E14, R1 and MC1; format: cell-based, mouse
Method: RNA samples were quantified using Qubit 2.0 Fluorometer (Life Technologies, Carlsbad, Calif., USA) and RNA integrity was checked with RNA Screen Tape on Agilent 2200 TapeStation (Agilent Technologies, Palo Alto, Calif., USA). […] RNA sequencing library preparation was prepared using Ribo-Zero rRNA Removal Kit and TruSeq Stranded Total RNA library Prep kit following manufacturer's protocol (Illumina, Cat # RS-122-2101). Briefly, rRNA was depleted with Ribo-Zero rRNA Removal Kit. rRNA depleted RNAs were fragmented for 8 minutes at 94° C. First strand and second strand cDNA were subsequently synthesized. The second strand of cDNA was marked by incorporating dUTP during the synthesis. cDNA fragments were adenylated at 3′ends, and indexed adapter was ligated to cDNA fragments. Limited cycle PCR was used for library enrichment. The incorporated dUTP in second strand cDNA quenched the amplification of second strand, which helped to preserve the strand specificity. Sequencing libraries were validated using DNA Analysis Screen Tape on the Agilent 2200 TapeStation (Agilent Technologies, Palo Alto, Calif., USA), and quantified by using Qubit 2.0 Fluorometer (Invitrogen, Carlsbad, Calif.) as well as by quantitative PCR (Applied Biosystems, Carlsbad, Calif., USA).
The sequencing libraries were multiplexed and clustered on 1 lane of flowcell. […] On average ˜29 million reads were generated for a sample and average insert size ranged between 204-231 for the samples.
Transcript and gene level quantification was done with Kallisto (version 0.43.0)^16. […] Additionally, all reads were mapped with the STAR spliced aligner (version 2.5.2b)^17 to the GRCm38 (mm10) genome after trimming the reads to 100 bp with Trimmomatic (version 0.36)^18. Repeat expression was quantified by counting fragments overlapping with the repeat annotation from the Choi et al. 2017 paper, with using FeatureCounts from the subread package (version 1.5.2)^19. […]
Read counts for each sample estimated by Kallisto were imported into the R statistical environment (version 3.2.2) using tximport (version 1.1.2)^20. […]

CNCc1ccc(-c2cc(-c3nc(-c4ccc(S(=O)(=O)C(C)C)cc4)cnc3N)on2)cc1 [VE 822]
APH induced 2C-like genes which reverted their expression level (mESC lines E14 and R1; 31 out of 43, inhibitor added after APH): 72%
two placenta-related gene categories upon ATR inhibition (mESC lines E14 and R1; APH plus inhibitor): robustly suppressed
DNA repair signaling pathway (geneset enrichment analysis) (mESC lines E14 and R1; inhibitor added after APH-induced replication stress): robust silencing
genes shared between APH and DUX-induced condition rescued ([1]; APH plus ATRi): 71%

C[C@@]1(CO)[C@H](O)CC[C@@]2(C)[C@H]1CC[C@H]1C[C@@H]3C[C@@]12CC[C@]3(O)CO [APH, aphidicolin]
downregulated genes (mESC lines E14 and R1; APH treatment, E14 and R1): 21 genes
upregulated genes with more than two-fold changes (mESC lines E14 and R1; APH treatment, E14 and R1): 193 genes
DEGs overlapping with totipotency specific genes (mESC lines E14 and R1; APH treatment, 43 out of 201, compared with published datasets): 17%
two placenta-related gene categories (MSigDB gene-sets analysis) (mESC lines E14 and R1; APH vs CNTL): strong and highly significant enrichment
downregulated genes ([1]; APH treatment, FDR<0.05): 640 genes
upregulated genes with more than two-fold change ([1]; APH treatment, FDR<0.05): 3074 genes
